These compounds were tested against Sodium- and chloride-dependent GABA transporter 1 (Homo sapiens, UniProt P30531) (assay: Inhibition of GAT1 transport activity).
Chain of Sodium- and chloride-dependent GABA transporter 1 (P30531 whole entry): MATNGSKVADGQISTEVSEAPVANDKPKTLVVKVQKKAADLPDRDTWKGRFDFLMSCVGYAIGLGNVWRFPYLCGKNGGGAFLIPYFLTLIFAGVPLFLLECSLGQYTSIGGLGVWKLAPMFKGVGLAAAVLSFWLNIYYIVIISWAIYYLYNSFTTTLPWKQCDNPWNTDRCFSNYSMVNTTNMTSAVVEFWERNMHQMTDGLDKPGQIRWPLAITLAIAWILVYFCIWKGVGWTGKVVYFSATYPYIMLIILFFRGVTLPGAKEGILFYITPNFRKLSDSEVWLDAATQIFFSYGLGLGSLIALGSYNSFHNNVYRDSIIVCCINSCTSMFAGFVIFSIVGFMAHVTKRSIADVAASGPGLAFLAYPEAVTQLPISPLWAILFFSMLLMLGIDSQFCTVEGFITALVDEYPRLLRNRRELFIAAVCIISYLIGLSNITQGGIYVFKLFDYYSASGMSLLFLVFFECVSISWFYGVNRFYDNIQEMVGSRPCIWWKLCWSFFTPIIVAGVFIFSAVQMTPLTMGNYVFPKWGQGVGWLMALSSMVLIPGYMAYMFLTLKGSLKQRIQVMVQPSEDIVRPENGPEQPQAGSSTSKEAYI

Row | Compound | IC50 [nM]
1 | O=C(O)[C@@H]1CCCN(CCC=C(c2sccc2COCc2ccccc2)c2sccc2COCc2ccccc2)C1 | 840
2 | Cc1ccsc1C(=CCCN1CCC(C(=O)O)CC1)c1sccc1C | > 100000
3 | O=C(O)C1CCN(CCC=C(c2sccc2COC2CCCCC2)c2sccc2COC2CCCCC2)CC1 | 1240
4 | O=C(O)C1CCN(CCC=C(c2sccc2COc2cccc3ccccc23)c2sccc2COc2cccc3ccccc23)CC1 | > 100000
5 | O=C(O)[C@@H]1CCCN(CCC=C(c2sccc2COc2cccc3ccccc23)c2sccc2COc2cccc3ccccc23)C1 | 66300
6 | Cc1ccsc1C(=CCCN1CCCCC1C(=O)O)c1sccc1C (stereo not given) | 1360
7 | O=C(O)C1CCCCN1CCC=C(c1sccc1COCc1ccccc1)c1sccc1COCc1ccccc1 (stereo not given) | 27600
8 | O=C(O)C1CCN(CCC=C(c2sccc2COCc2ccccc2)c2sccc2COCc2ccccc2)CC1 | 4340
9 | O=C(O)C1CCCCN1CCC=C(c1sccc1COC1CCCCC1)c1sccc1COC1CCCCC1 (stereo not given) | 940
10 | O=C(O)C1CCCCN1CCC=C(c1sccc1COc1cccc2ccccc12)c1sccc1COc1cccc2ccccc12 (stereo not given) | > 100000
11 | O=C(O)C1CCN(CCC=C(c2sccc2COc2ccccc2)c2sccc2COc2ccccc2)CC1 | 1500
12 | O=C(O)C1CCCCN1CCC=C(c1sccc1COc1ccccc1)c1sccc1COc1ccccc1 (stereo not given) | 650

Further lines, results first:

Row | IC50 [nM] | Compound
13 | > 100000 | CC(C)OCc1ccsc1C(=CCCN1CCCCC1C(=O)O)c1sccc1COC(C)C (stereo not given)
14 | 2800 | COCc1ccsc1C(=CCCN1CCC[C@@H](C(=O)O)C1)c1sccc1COC
15 | 680 | O=C(O)[C@@H]1CCCN(CCC=C(c2sccc2COC2CCCCC2)c2sccc2COC2CCCCC2)C1
16 | > 100000 | COCc1ccsc1C(=CCCN1CCC(C(=O)O)CC1)c1sccc1COC
17 | 7100 | CC(C)OCc1ccsc1C(=CCCN1CCC[C@@H](C(=O)O)C1)c1sccc1COC(C)C
18 | > 100000 | CC(C)OCc1ccsc1C(=CCCN1CCC(C(=O)O)CC1)c1sccc1COC(C)C
19 | 340 | O=C(O)[C@@H]1CCCN(CCC=C(c2sccc2COc2ccccc2)c2sccc2COc2ccccc2)C1
20 | 12300 | COCc1ccsc1C(=CCCN1CCCCC1C(=O)O)c1sccc1COC (stereo not given)

Source: ChEMBL document CHEMBL1148561, “Design, synthesis, and biological evaluation of the N-diarylalkenyl-piperidinecarboxylic acid derivatives as GABA uptake inhibitors (I)” (Bioorg Med Chem Lett, 2006)
